Results on eight compounds are retold here after ChEMBL document CHEMBL4732135, “Structural and mechanistic insights into the inhibition of amyloid-β aggregation by Aβ fragment derived synthetic peptides” (Eur J Med Chem, 2021).

Active and inactive are the calls of the source. No cut-off for these calls is given here. Square brackets hold non-standard residues; d marks the D form. Peptide text beside a SMILES is read from it. Phe(4-NO2) = N[C@@H](Cc1ccc([N+](=O)[O-])cc1)C(=O)O; Phe(4-tBu) = CC(C)(C)c1ccc(C[C@H](N)C(=O)O)cc1; Phe(4-NH2) = Nc1ccc(C[C@H](N)C(=O)O)cc1; Phe(4-Me) = Cc1ccc(C[C@H](N)C(=O)O)cc1; β3hP = O=C(O)C[C@@H]1CCCN1; Abu = CC[C@H](N)C(=O)O

A word on the inhibition: it is the change of the read-out against control, counted positive when it falls.

The target of one series is Amyloid-beta precursor protein (Homo sapiens) (UniProt P05067). Kind of series: Inhibition of amyloid beta (1 to 42) (unknown origin) assessed as reduction in peptide aggregation at 4 uM measured after 24 hrs by thioflavin-T fluorescence assay relative to control.
Chain of Amyloid-beta precursor protein (Homo sapiens) (P05067 whole entry): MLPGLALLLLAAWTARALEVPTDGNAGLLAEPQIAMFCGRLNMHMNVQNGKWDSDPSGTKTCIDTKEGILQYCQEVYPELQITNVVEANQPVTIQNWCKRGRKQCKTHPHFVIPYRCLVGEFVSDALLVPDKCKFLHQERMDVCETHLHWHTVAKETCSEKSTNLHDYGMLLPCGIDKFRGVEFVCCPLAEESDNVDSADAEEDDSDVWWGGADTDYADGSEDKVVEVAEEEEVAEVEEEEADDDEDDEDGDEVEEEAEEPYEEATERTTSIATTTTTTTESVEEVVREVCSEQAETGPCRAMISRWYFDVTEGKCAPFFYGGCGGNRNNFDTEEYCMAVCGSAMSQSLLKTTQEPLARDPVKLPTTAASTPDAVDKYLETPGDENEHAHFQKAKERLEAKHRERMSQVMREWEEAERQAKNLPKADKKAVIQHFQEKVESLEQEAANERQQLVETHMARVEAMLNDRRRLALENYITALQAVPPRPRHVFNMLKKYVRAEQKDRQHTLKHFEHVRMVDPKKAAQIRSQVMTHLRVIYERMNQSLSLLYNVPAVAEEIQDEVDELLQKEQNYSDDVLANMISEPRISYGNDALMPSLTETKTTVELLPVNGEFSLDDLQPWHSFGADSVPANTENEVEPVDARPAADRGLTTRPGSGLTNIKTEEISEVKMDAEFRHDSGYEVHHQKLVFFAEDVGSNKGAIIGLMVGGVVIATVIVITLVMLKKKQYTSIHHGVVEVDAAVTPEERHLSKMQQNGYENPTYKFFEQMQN
Details: not given
`CC[C@H](NC(=O)[C@@H](N)CC)C(=O)N[C@H](C(=O)N[C@@H](C)C(=O)O)[C@@H](C)CC` (H-[Abu][Abu]IA-OH): the inhibition worked out at 90.2%.
Same read-out and setting: the result for `CC[C@H](C)[C@H](NC(=O)[C@@H](NC(=O)[C@@H](N)Cc1ccc(C)cc1)C(C)C)C(=O)N[C@@H](C)C(=O)O` (H-[Phe(4-Me)]VIA-OH) reads 3.2%; that for `CC[C@H](C)[C@H](NC(=O)[C@@H](NC(=O)[C@@H](N)Cc1ccc(N)cc1)C(C)C)C(=O)N[C@@H](C)C(=O)O` (H-[Phe(4-NH2)]VIA-OH), 68.4%; that for `CC[C@H](C)[C@H](NC(=O)[C@@H](NC(=O)[C@@H](N)Cc1ccc([N+](=O)[O-])cc1)C(C)C)C(=O)N[C@@H](C)C(=O)O` (H-[Phe(4-NO2)]VIA-OH), 78.4%.
Turning to `CC[C@H](C)[C@H](NC(=O)[C@@H](NC(=O)[C@@H](N)Cc1ccc(C(C)(C)C)cc1)C(C)C)C(=O)N[C@@H](C)C(=O)O` (H-[Phe(4-tBu)]VIA-OH), the inhibition came out at 57.4%.
In the case of `CC[C@H](C)[C@H](NC(=O)C[C@@H]1CCCN1C(=O)C[C@@H]1CCCN1)C(=O)N[C@@H](C)C(=O)O` (H-[β3hP][β3hP]IA-OH), the inhibition was 89.7%.

The subject of the next series is PC-12. As to the kind of experiment: Cytotoxicity against rat PC-12 cells assessed as reduction in cell viability at 20 uM measured after 6 hrs by MTT assay. It counts as cell-based. To be noted: pc-12, 6 h. (In general: Tetrazolium dyes change colour on reduction, which living cells bring about.)
For `CC[C@H](NC(=O)[C@@H](N)CC)C(=O)N[C@H](C(=O)N[C@@H](C)C(=O)O)[C@@H](C)CC` (H-[Abu][Abu]IA-OH), the Activity result is given as “Non-Toxic”.

Another series has as its target Amyloid-beta precursor protein (Homo sapiens) (UniProt P05067). Kind of series: Inhibition of amyloid beta (1 to 42) (unknown origin) assessed as reduction in peptide aggregation at 2 uM measured after 24 hrs by thioflavin-T fluorescence assay relative to control.
Details: not given
As for `CC[C@H](NC(=O)[C@@H](N)CC)C(=O)N[C@H](C(=O)N[C@@H](C)C(=O)O)[C@@H](C)CC` (H-[Abu][Abu]IA-OH), the inhibition was found to be 97.7%.
Take `CC[C@H](C)[C@H](NC(=O)[C@@H](NC(=O)[C@@H](N)Cc1ccc(C)cc1)C(C)C)C(=O)N[C@@H](C)C(=O)O` (H-[Phe(4-Me)]VIA-OH): the inhibition was 0%.
Same read-out and setting: for `CC[C@H](C)[C@H](NC(=O)[C@@H](NC(=O)[C@@H](N)Cc1ccc(N)cc1)C(C)C)C(=O)N[C@@H](C)C(=O)O` (H-[Phe(4-NH2)]VIA-OH) the value was 59.2%; for `CC[C@H](C)[C@H](NC(=O)[C@@H](NC(=O)[C@@H](N)Cc1ccc([N+](=O)[O-])cc1)C(C)C)C(=O)N[C@@H](C)C(=O)O` (H-[Phe(4-NO2)]VIA-OH), 94.8%; for `CC[C@H](C)[C@H](NC(=O)[C@@H](NC(=O)[C@@H](N)Cc1ccc(C(C)(C)C)cc1)C(C)C)C(=O)N[C@@H](C)C(=O)O` (H-[Phe(4-tBu)]VIA-OH), 78.6%.
Still for that read-out and setting: for `CC[C@H](C)[C@H](NC(=O)C[C@@H]1CCCN1C(=O)C[C@@H]1CCCN1)C(=O)N[C@@H](C)C(=O)O` (H-[β3hP][β3hP]IA-OH) the value was 78.9%.

The target is the same in the next series. Kind of series: Inhibition of amyloid beta (1 to 42) (unknown origin) assessed as reduction in peptide aggregation at 10 uM measured after 24 hrs by thioflavin-T fluorescence assay relative to control.
Details: not given
Turning to `CC[C@H](NC(=O)[C@@H](N)CC)C(=O)N[C@H](C(=O)N[C@@H](C)C(=O)O)[C@@H](C)CC` (H-[Abu][Abu]IA-OH), the inhibition stood at 88.7%.
Same read-out and setting: the result for `CC[C@H](C)[C@H](NC(=O)[C@@H](NC(=O)[C@@H](N)Cc1ccc(C)cc1)C(C)C)C(=O)N[C@@H](C)C(=O)O` (H-[Phe(4-Me)]VIA-OH) reads 26.8%; that for `CC[C@H](C)[C@H](NC(=O)[C@@H](NC(=O)[C@@H](N)Cc1ccc(N)cc1)C(C)C)C(=O)N[C@@H](C)C(=O)O` (H-[Phe(4-NH2)]VIA-OH), 77.4%.
On the same count and under the same terms, the result for `CC[C@H](C)[C@H](NC(=O)[C@@H](NC(=O)[C@@H](N)Cc1ccc([N+](=O)[O-])cc1)C(C)C)C(=O)N[C@@H](C)C(=O)O` (H-[Phe(4-NO2)]VIA-OH) reads 50.4%; that for `CC[C@H](C)[C@H](NC(=O)[C@@H](NC(=O)[C@@H](N)Cc1ccc(C(C)(C)C)cc1)C(C)C)C(=O)N[C@@H](C)C(=O)O` (H-[Phe(4-tBu)]VIA-OH), 42%; that for `CC[C@H](C)[C@H](NC(=O)C[C@@H]1CCCN1C(=O)C[C@@H]1CCCN1)C(=O)N[C@@H](C)C(=O)O` (H-[β3hP][β3hP]IA-OH), 100%.

Another series deals with PC-12. Kind of series: Neuroprotective activity against amyloid beta 42-induced toxicity in rat PC-12 cells assessed as cell viability at 4 uM measured after 6 hrs by MTT assay (reference value: 74.05%). It counts as functional. To be noted: read-out: Activity.
On to `CC[C@H](NC(=O)[C@@H](N)CC)C(=O)N[C@H](C(=O)N[C@@H](C)C(=O)O)[C@@H](C)CC` (H-[Abu][Abu]IA-OH), for which the viability at 4 µM amounted to 100%.
The same measure, in the same setting: for `CC[C@H](C)[C@H](NC(=O)[C@@H](NC(=O)[C@@H](N)Cc1ccc(C)cc1)C(C)C)C(=O)N[C@@H](C)C(=O)O` (H-[Phe(4-Me)]VIA-OH) the value was 68.4%.
Take `CC[C@H](C)[C@H](NC(=O)[C@@H](NC(=O)[C@@H](N)Cc1ccc(N)cc1)C(C)C)C(=O)N[C@@H](C)C(=O)O` (H-[Phe(4-NH2)]VIA-OH): the viability at 4 µM stood at 70.3%.
On the same count and under the same terms, for `CC[C@H](C)[C@H](NC(=O)[C@@H](NC(=O)[C@@H](N)Cc1ccc([N+](=O)[O-])cc1)C(C)C)C(=O)N[C@@H](C)C(=O)O` (H-[Phe(4-NO2)]VIA-OH) the value was 100%; for `CC[C@H](C)[C@H](NC(=O)[C@@H](NC(=O)[C@@H](N)Cc1ccc(C(C)(C)C)cc1)C(C)C)C(=O)N[C@@H](C)C(=O)O` (H-[Phe(4-tBu)]VIA-OH), 87.3%; for `CC[C@H](C)[C@H](NC(=O)C[C@@H]1CCCN1C(=O)C[C@@H]1CCCN1)C(=O)N[C@@H](C)C(=O)O` (H-[β3hP][β3hP]IA-OH), 75.5%.

The next series has as its system PC-12. Kind of series: Neuroprotective activity against amyloid beta 42-induced toxicity in rat PC-12 cells assessed as cell viability at 2 uM measured after 6 hrs by MTT assay (reference value: 74.05%). As to conditions: read-out: Activity. In kind it is functional.
`CC[C@H](NC(=O)[C@@H](N)CC)C(=O)N[C@H](C(=O)N[C@@H](C)C(=O)O)[C@@H](C)CC` (H-[Abu][Abu]IA-OH): the viability at 2 µM stood at 100%.
As for `CC[C@H](C)[C@H](NC(=O)[C@@H](NC(=O)[C@@H](N)Cc1ccc(C)cc1)C(C)C)C(=O)N[C@@H](C)C(=O)O` (H-[Phe(4-Me)]VIA-OH), the viability at 2 µM came to 71.7%.
In the case of `CC[C@H](C)[C@H](NC(=O)[C@@H](NC(=O)[C@@H](N)Cc1ccc(N)cc1)C(C)C)C(=O)N[C@@H](C)C(=O)O` (H-[Phe(4-NH2)]VIA-OH), the viability at 2 µM came out at 77.8%.
On the same count and under the same terms, for `CC[C@H](C)[C@H](NC(=O)[C@@H](NC(=O)[C@@H](N)Cc1ccc([N+](=O)[O-])cc1)C(C)C)C(=O)N[C@@H](C)C(=O)O` (H-[Phe(4-NO2)]VIA-OH) the value was 94.1%.
For `CC[C@H](C)[C@H](NC(=O)[C@@H](NC(=O)[C@@H](N)Cc1ccc(C(C)(C)C)cc1)C(C)C)C(=O)N[C@@H](C)C(=O)O` (H-[Phe(4-tBu)]VIA-OH), the viability at 2 µM came out at 93.6%.
Same read-out and setting: for `CC[C@H](C)[C@H](NC(=O)C[C@@H]1CCCN1C(=O)C[C@@H]1CCCN1)C(=O)N[C@@H](C)C(=O)O` (H-[β3hP][β3hP]IA-OH) the value was 97.9%.

The test system of a further series is PC-12. As to the kind of experiment: Neuroprotective activity against amyloid beta 42-induced toxicity in rat PC-12 cells assessed as cell viability at 10 uM measured after 6 hrs by MTT assay (reference value: 74.05%). In kind it is functional. To be noted: read-out: Activity.
In the case of `CC[C@H](NC(=O)[C@@H](N)CC)C(=O)N[C@H](C(=O)N[C@@H](C)C(=O)O)[C@@H](C)CC` (H-[Abu][Abu]IA-OH), the viability at 10 µM was found to be 92.1%.
Same read-out and setting: for `CC[C@H](C)[C@H](NC(=O)[C@@H](NC(=O)[C@@H](N)Cc1ccc(C)cc1)C(C)C)C(=O)N[C@@H](C)C(=O)O` (H-[Phe(4-Me)]VIA-OH) the value was 72.6%.
Still for that read-out and setting: the result for `CC[C@H](C)[C@H](NC(=O)[C@@H](NC(=O)[C@@H](N)Cc1ccc(N)cc1)C(C)C)C(=O)N[C@@H](C)C(=O)O` (H-[Phe(4-NH2)]VIA-OH) reads 82.1%.
As for `CC[C@H](C)[C@H](NC(=O)[C@@H](NC(=O)[C@@H](N)Cc1ccc([N+](=O)[O-])cc1)C(C)C)C(=O)N[C@@H](C)C(=O)O` (H-[Phe(4-NO2)]VIA-OH), the viability at 10 µM was determined as 73.7%.
Take `CC[C@H](C)[C@H](NC(=O)[C@@H](NC(=O)[C@@H](N)Cc1ccc(C(C)(C)C)cc1)C(C)C)C(=O)N[C@@H](C)C(=O)O` (H-[Phe(4-tBu)]VIA-OH): the viability at 10 µM worked out at 80.2%.
Same read-out and setting: the result for `CC[C@H](C)[C@H](NC(=O)C[C@@H]1CCCN1C(=O)C[C@@H]1CCCN1)C(=O)N[C@@H](C)C(=O)O` (H-[β3hP][β3hP]IA-OH) reads 100%.

The subject of another series is Cortical neurone. Kind of series: Neuroprotective activity against amyloid beta 42-induced toxicity in rat primary cortical neurons at 10 uM. It counts as functional, cell-based.
Details: not given
For `COc1cc(/C=C/C(=O)CC(=O)/C=C/c2ccc(O)c(OC)c2)ccc1O`, the outcome was Active.
In the case of `Oc1ccc(/C=C/c2cc(O)cc(O)c2)cc1`, the outcome was Active.

A further series deals with Cortical neurone. Kind of series: Cytotoxicity against rat primary cortical neuron assessed as reduction in cell viability at 20 uM measured after 6 hrs by MTT assay. In kind it is cell-based.
Details: not given
As for `CC[C@H](NC(=O)[C@@H](N)CC)C(=O)N[C@H](C(=O)N[C@@H](C)C(=O)O)[C@@H](C)CC` (H-[Abu][Abu]IA-OH), the Activity result is on record as “Non-Toxic”.
